Results: patent publication US10287313B2, “RNA monomers containing 0-acetal levulinyl ester groups and their use in RNA microarrays” (THE ROYAL INSTITUTION FOR THE ADVANCEMENT OF …, priority 2008, dated 2019)
In the oligonucleotide strings, read from the 5' end, every base follows the letter of its sugar. An asterisk marks phosphorothioate; unmarked linkages are phosphodiester. Other units and linkages are bracketed, terminal groups are in braces. A string of capitals states the bases alone. d = 2'-deoxy (DNA); r = 2'-OH (RNA)

What was measured:
[1] = Tm of 21-nt RNAs synthesized from various chemistries; format: physicochemical; conditions: base sequence r(GCUUGAAGUCUUUAAUUAA)-d(TT)
[2] = tested on: luciferase mRNA; experiment: RNAi assay that targets luciferase mRNA (luciferase gene knockdown by siRNA duplexes); format: cell-based; conditions: antisense strand annealed to common sense strand synthesized via 2′-TBDMS chemistry; light units relative to Renilla control; compared with TBDMS, TOM and ACE derived duplexes
Text: The fully deprotected antisense strands were synthesized by TBDMS, TOM, ACE and ALE chemistries, whereas the complementary sense strand of the siRNA duplex was synthesized by TBDMS chemistry.
As a final check, we evaluated the activity of all RNAs synthesized in an RNAi assay that targets luciferase mRNA (Dowler, T. et al. Nucleic Acids Res 2006, 34, 1669-75). Each of the antisense strands prepared by the various chemistries were allowed to anneal to a common sense strand synthesized via 2′-TBDMS chemistry.

Substance | Tm [1] | gene silencing activity (luciferase gene knockdown) [2]
r(GCUUGAAGUCUUUAAUUAA)-d(TT) [TBDMS] (RNA, 3' dTdT, backbone not given here) [21-nt antisense siRNA strand synthesized from 2′-O-TBDMS chemistry] | 59.8 °C | –
r(GCUUGAAGUCUUUAAUUAA)-d(TT) [ALE] (antisense rGrCrUrUrGrArArGrUrCrUrUrUrArArUrUrArAdTdT) [21-nt antisense siRNA strand synthesized from 2′-O-ALE chemistry] | 59.4 °C | same gene silencing activity
r(GCUUGAAGUCUUUAAUUAA)-d(TT) [ACE] (antisense rGrCrUrUrGrArArGrUrCrUrUrUrArArUrUrArAdTdT) [21-nt antisense siRNA strand from 2′-O-ACE chemistry, crude RNA purchased from Dharmacon] | 59.5 °C | –
r(GCUUGAAGUCUUUAAUUAA)-d(TT) [TOM] (antisense rGrCrUrUrGrArArGrUrCrUrUrUrArArUrUrArAdTdT) [21-nt antisense siRNA strand synthesized from 2′-O-TOM chemistry] | 60.1 °C | –
